Measurements reported in patent publication US20170224654A1, “PHARMACEUTICAL COMPOSITIONS AND METHODS FOR COUNTERING CHEMOTHERAPY INDUCED CARDIOTOXICITY” (Stem Cell Theranostics, Inc., priority 2016, published 2017).

Columns and labels:
[1] = system: human induced pluripotent stem cell-derived cardiomyocytes (iPSC-CM)
[2] = biological target: T1, TOPOIIβ (Homo sapiens, UniProt Q02880); assay: kDNA decatenation assay; assay type: biochemical; details: 37° C., 30 min, n=3; read-out: IC50 of TOPOIIβ enzyme activity
T1 construct: purchased Inspiralis
T1 sequence (Q02880 whole entry): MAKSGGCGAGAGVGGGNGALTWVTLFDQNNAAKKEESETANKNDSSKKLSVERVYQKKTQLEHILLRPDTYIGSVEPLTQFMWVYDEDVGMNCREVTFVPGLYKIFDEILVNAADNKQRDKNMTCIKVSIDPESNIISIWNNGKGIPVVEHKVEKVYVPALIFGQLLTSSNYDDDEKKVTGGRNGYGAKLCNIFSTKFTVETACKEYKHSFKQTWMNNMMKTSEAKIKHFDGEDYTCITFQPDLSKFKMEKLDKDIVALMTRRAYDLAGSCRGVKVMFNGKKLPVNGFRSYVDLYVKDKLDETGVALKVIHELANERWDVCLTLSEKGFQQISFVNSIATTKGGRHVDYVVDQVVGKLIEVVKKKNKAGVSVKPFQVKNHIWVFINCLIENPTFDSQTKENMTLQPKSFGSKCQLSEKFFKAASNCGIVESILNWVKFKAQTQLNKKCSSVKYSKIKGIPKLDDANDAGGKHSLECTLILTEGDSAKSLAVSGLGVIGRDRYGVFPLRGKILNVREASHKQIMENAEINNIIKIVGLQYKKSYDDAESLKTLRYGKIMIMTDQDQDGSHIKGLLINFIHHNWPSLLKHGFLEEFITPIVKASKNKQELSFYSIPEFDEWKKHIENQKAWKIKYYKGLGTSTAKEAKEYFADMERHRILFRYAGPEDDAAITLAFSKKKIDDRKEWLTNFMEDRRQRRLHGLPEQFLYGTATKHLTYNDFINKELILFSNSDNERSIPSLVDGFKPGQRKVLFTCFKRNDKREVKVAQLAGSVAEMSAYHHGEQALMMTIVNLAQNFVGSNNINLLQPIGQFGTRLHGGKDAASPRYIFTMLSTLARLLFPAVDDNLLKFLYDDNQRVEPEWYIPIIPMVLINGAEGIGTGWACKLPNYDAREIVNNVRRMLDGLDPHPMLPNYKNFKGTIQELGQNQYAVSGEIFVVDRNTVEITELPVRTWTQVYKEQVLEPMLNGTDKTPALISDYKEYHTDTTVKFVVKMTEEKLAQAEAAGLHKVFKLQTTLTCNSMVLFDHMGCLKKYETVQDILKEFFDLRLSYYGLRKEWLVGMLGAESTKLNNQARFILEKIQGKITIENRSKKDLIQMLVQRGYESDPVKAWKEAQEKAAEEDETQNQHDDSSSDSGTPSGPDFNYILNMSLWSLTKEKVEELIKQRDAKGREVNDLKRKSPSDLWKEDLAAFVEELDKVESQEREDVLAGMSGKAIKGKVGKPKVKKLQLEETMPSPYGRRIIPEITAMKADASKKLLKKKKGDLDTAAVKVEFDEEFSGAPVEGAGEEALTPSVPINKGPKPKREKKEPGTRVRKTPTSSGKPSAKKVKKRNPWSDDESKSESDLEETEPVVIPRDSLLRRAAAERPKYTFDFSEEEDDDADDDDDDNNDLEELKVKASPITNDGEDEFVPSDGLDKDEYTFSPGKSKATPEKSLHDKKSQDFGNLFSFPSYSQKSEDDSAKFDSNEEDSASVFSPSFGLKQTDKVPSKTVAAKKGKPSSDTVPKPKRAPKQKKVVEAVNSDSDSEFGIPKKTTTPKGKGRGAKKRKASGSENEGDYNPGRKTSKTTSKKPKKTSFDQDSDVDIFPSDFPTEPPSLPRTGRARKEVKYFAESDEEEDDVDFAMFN

[3] = system: Human iPSC-derived cardiomyocytes; assay: DOX-induced DNA double strand break (γH2AX immunostaining); assay type: cell-based; details: DOX 0.5 μM plus 100 μM agent, 48 hours
[4] = system: Human iPSC-derived cardiomyocytes; assay: DOX-induced contractility dysfunction (Pulse videos), 48 hours; assay type: cell-based
[5] = system: sorafenib treated cardiomyocytes; assay: Sorafenib-induced contractile dysfunction; assay type: cell-based, human; details: 5 μM sorafenib
[6] = system: TOPOIIβ mRNA expression; assay: mRNA expression level in cardiomyocytes; assay type: cell-based
[7] = system: topoisomerase IIβ protein in human iPSC-derived cardiomyocytes; assay: TOPOIIβ protein level (immunostaining), 24 hours; assay type: cell-based; details: 100 μM
Method: To further distinguish molecular mechanisms of MYR from those of DEX and also to determine whether the inhibitory effects of MYR on TOPOII observed in the decatenation assays above is due to degradation of TOPOII proteins, human iPSC-derived cardiomyocytes were treated with DMSO, DEX (100 μM), or MYR (100 μM) for 24 hours, and immunostained with antibody against topoisomerase IIβ (BD Biosciences).
Cells were imaged using INCell Analyzer2200 (GE) and […] protein levels were quantified. Student T-Test (unpaired, two-tailed) was used to determine the significance of the difference.

[8] = system: TOPOIIα mRNA expression; assay: mRNA expression level in cardiomyocytes; assay type: cell-based
[9] = system: cardiomyocytes; assay: Bortezomib-induced cell death; assay type: cell-based, human; details: 100 μM myricetin
[10] = system: Human iPSC-derived cardiomyocytes; assay: Mitochondrial toxicity imaging (TMRM) after doxorubicin, 2 days; assay type: cell-based; details: 1.25 μM doxorubicin + 79 μM myricetin vs 1.25 μM doxorubicin alone
Method: Following treatment, the samples were incubated with a tetramethylrhodamine methyl ester (TMRM) dye to indicate mitochondrial health, and Hoechst 33342 to identify cell nuclei. Cells were imaged using the INCell Analyzer2200.

[11] = system: patient; assay: Patient treatment examples (echocardiogram / electrocardiogram); assay type: in vivo, human; details: for QT prolongation (in words): doxorubicin (5 mg/mL) given with the protective agent
Method: A patient, with a history of heart disease, is diagnosed with breast cancer. Due to an increased risk for heart failure, the patient is unable to receive the standard treatment regimen of doxorubicin, which is known to induce cardiotoxicity. Instead, the caregiver administers a co-formulation of doxorubicin (10 mg) and vitexin (100 mg). An echocardiogram is performed and blood flow rate is measured to determine if the therapy has a cardiotoxic effect in the patient.
A patient is diagnosed with liver cancer. […] The patient presents with a 20 ms QT prolongation. […] The patient is able to continue receiving treatment over several weeks after which a tissue biopsy is performed to confirm the liver cancer has been eradicated.
(§1) A patient is diagnosed with stage II lung cancer, and presents with bradycardia. Due to an increased risk for heart failure, the patient is unable to receive the standard treatment regimen of doxorubicin, which is known to affect cardiac contraction and induce bradycardia. Instead, the caregiver administers a co-formulation of doxorubicin (10 mg) and myricetin (100 mg). An electrocardiogram is used to monitor the patient's heart rate. […] The lung cancer is down-staged to stage 1, and the cancer is successfully removed with surgery.
as §1, with “myricetin (100 mg) 24 hours before administration” for “a co-formulation”, “(10” for “(10 mg) and myricetin (100”

[12] = system: Human iPSC-derived cardiomyocytes; assay: Cytotoxicity of MYR analogs to cardiomyocytes; details: at or below 100 μM as stated
[13] = system: TOPOII enzymes (TOPOIIα and TOPOIIβ); assay: kDNA decatenation assay, TOPOIIα and TOPOIIβ jointly; assay type: biochemical; details: discussion of Table 1
Method: 200 ng of kinetoplast DNA (kDNA) was incubated with one enzymatic unit of TOPOIIα or TOPOIIβ enzyme (Inspiralis) and with various concentrations of MYR or DEX at 37° C. for 30 min. The reaction was then separated on 1% agarose gel for visualization of decatenated DNA (bottom band). The efficiency of catalytic inhibition was quantified by measuring the relative intensity of the band.

[14] = system: Doxorubicin treated human iPSC-derived cardiomyocytes; assay: iPSC-CM protection of MYR analogs against doxorubicin; assay type: cell-based; details: discussion of Table 1
[15] = in vitro; details: human
[16] = system: MDA-MB-231 breast cancer cells; assay: Cell viability with doxorubicin (CellTiter-Glo); assay type: cell-based; details: co-treated with increasing concentrations of doxorubicin, 72 hours
[17] = system: induced pluripotent stem cell-derived cardiomyocytes; assay: Acute toxicity on electrophysiology (MEA beat period, field potential duration); assay type: cell-based; details: for beat period or field potential duration, as compared to control samples: lower drug concentration, at least 20 minutes; for acute drug toxicity (beating): higher concentrations
Method: Samples were either mock-treated with 0.1% DMSO, or treated with increasing concentrations of the indicated drug for at least 20 minutes. Cardiomyocytes were treated with the hERG potassium channel blocker E4031 as a control. Following treatment, the beat period and field potential duration (FPD) were measured in each sample using the MEA.

[18] = system: A549 cells (lung cancer); assay: Cell viability with doxorubicin (CellTiter-Glo); assay type: cell-based; details: co-treated with increasing concentrations of doxorubicin, 72 hours
Method: A549 cells (lung cancer) were cultured for 1 day before performing experiments. […] XLFit was used for curve fitting.

[19] = system: induced pluripotent stem cell-derived cardiomyocytes; assay: Long term toxicity on electrophysiology (active electrodes, MEA); assay type: cell-based; details: for number of active electrodes relative to the mock-treated sample (in words): various concentrations, at least 5 days
Method: Samples were either mock-treated with 0.1% DMSO, or treated with various concentrations of the indicated drug. Following treatment, the percentage of active electrodes in each sample was measured for at least 5 days. Percentage of active electrodes was quantified and graphed in a time course.

[20] = system: human induced pluripotent stem cell-derived cardiomyocytes; assay: Long-term mitochondrial health (TMRM), 7 days; assay type: cell-based; details: 1 μM doxorubicin alone or with dexrazoxane or vitexin
Method: Following treatment, the samples were incubated with a tetramethylrhodamine methyl ester (TMRM) dye to indicate mitochondrial health. […] Representative images are presented for each sample, wherein loss of TMRM signal represents mitochondrial toxicity.

[21] = biological target: T2, TOPOIIα (Homo sapiens, UniProt P11388); assay: kDNA decatenation assay; assay type: biochemical; details: 37° C., 30 min, n=3; read-out: IC50 of TOPOIIα enzyme activity
T2 construct: purchased Inspiralis
T2 sequence (P11388 whole entry): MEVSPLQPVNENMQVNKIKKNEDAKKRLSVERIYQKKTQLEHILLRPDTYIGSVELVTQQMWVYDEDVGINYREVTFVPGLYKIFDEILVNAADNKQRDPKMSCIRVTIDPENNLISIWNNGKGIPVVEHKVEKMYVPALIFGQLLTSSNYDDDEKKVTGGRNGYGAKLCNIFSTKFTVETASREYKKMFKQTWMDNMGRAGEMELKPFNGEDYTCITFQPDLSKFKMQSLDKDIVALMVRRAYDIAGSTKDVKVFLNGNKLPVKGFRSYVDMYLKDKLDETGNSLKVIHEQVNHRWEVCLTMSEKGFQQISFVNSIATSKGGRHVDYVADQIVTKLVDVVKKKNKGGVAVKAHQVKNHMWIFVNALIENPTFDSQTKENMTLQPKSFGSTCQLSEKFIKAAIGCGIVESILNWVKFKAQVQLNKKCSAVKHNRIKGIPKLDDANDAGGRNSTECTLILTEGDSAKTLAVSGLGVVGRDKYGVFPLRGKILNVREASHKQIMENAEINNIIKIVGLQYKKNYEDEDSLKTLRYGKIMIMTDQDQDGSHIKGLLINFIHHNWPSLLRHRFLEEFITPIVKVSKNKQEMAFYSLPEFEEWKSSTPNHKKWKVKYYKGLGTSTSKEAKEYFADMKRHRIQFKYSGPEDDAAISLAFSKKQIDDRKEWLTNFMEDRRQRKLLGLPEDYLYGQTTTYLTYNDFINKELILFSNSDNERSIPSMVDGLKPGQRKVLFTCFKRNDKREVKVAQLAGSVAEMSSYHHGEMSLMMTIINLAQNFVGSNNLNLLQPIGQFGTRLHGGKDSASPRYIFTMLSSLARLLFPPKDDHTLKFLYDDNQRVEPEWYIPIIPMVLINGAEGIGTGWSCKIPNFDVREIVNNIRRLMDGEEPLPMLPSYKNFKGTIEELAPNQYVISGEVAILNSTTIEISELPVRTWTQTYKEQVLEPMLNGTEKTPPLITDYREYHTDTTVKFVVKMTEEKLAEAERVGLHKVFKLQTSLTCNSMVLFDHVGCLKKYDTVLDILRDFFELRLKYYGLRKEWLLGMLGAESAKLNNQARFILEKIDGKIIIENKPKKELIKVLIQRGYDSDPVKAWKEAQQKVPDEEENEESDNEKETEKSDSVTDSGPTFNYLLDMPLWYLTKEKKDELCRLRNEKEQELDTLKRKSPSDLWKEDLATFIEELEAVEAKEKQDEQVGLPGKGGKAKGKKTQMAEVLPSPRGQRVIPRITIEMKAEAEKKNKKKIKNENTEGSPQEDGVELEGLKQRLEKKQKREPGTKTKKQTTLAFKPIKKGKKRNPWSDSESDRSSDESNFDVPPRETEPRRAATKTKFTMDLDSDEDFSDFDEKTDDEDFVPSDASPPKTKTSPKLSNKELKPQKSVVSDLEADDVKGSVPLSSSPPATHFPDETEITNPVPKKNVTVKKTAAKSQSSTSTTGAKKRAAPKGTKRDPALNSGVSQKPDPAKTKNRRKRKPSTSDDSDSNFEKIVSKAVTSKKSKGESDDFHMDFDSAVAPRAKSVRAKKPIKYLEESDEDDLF

[22] = system: human induced pluripotent stem cell-derived cardiomyocytes; assay: Electrophysiological activity with doxorubicin (active electrodes, MEA); assay type: cell-based; details: 1 μM doxorubicin, in the absence of vitexin
Method: Samples were either mock-treated with 0.1% DMSO, treated with 1 μM doxorubicin, or co-treated with 1 μM doxorubicin and various concentrations of vitexin (e.g., 11.6 μM, 37 μM, or 116 μM). Following treatment, the percentage of active electrodes in each sample was measured for 72 hours. Percentage of active electrodes was quantified and graphed in a time course (FIG. 28A). The average number of active electrodes per well was quantified and graphed at 30 hours after the treatment (FIG. 28B, n=6, standard deviation is shown as error bars).

[23] = system: C57BL/6 mice; assay: Acute anthracycline-induced cardiotoxicity model, echocardiography; assay type: in vivo; details: Doxorubicin 20 mg/kg single intraperitoneal injection, day 5
From the text: An acute anthracycline-induced cardiotoxicity model was established in 9-10 week old C57BL/6 mice obtained from The Jackson Laboratory. […] General health of the animals was monitored on a daily basis throughout the course of the study. […] Left ventricular (LV) M-mode images were obtained in the two-dimensional short axis view close to the papillary muscles. Tracings of endocardial tissue during systole and diastole were made off line.

[24] = agent alone, DOX at 24 and 48 hours

O=c1c(O)c(-c2cc(O)c(O)c(O)c2)oc2cc(O)cc(O)c12 [Compound 1, 3,5,7,3′,4′,5′-hexahydroxyflavone]
number of total cells, as compared to mock-treated control [1]: no significant difference
IC50 [2]: 2.07 µM
protection against DOX-induced DNA double strand break (γH2AX-positive cells) [3]: significant protection
correction of DOX-induced contractile dysfunction (beating, duration, peak height) ([4]; DOX 0.5 μM plus MYR 100 μM, compared to DEX 100 μM): significantly corrected
correction of cardiac dysfunction [5]: more than 80%
TOPOIIβ mRNA expression ([6]; DOX plus myricetin): restored to a level close to normal
TOPOIIβ mRNA expression [6, 24]: did not have any effect
topoisomerase IIβ protein levels [7]: no effect
TOPOIIα mRNA expression ([8]; DOX plus myricetin): further repressed
rescue of bortezomib-induced cardiotoxicity [9]: rescued bortezomib-induced cardiotoxicity
TMRM signal (protection against doxorubicin-induced mitochondrial toxicity) [10]: greater TMRM signal
QT prolongation (in words) [11]: no signs of QT prolongation
cardiac dysfunction in the patient ([11]; protective agent 100 mg co-formulated with, or 24 hours before, doxorubicin 10 mg): no indication of cardiac dysfunction

O=c1ccoc2cc(O)ccc12 [Compound 7-hydroxy-4-chromone, 7-hydroxy-4-chromone]
cytotoxicity / toxic effects to cardiomyocytes (in words) [12]: high level of cytotoxicity at 100 μM
TOPOII (TOPOIIα and TOPOIIβ) inhibition (in words) [13]: Nor did either compound confer TOPOIIβ or a inhibition
cardioprotection (in words) [14]: no positive effect in cardiac protection

CC(=O)[C@]1(O)Cc2c(O)c3c(c(O)c2[C@@H](O[C@H]2C[C@H](N)[C@H](O)[C@H](C)O2)C1)C(=O)c1ccccc1C3=O [Idarubicin, idarubicin]
CC50 at 72 h [15]: 0.59 µM

CC(=O)N[C@@H](CS)C(=O)O [N-acetyl cysteine]
percentage of cell death vs doxorubicin in the absence of a protective agent [16]: no significant difference
beat period or field potential duration, as compared to control samples [17]: no appreciable difference
percentage of cell death vs doxorubicin in the absence of a protective agent [18]: no significant difference

Nc1c(Br)cc(Br)cc1CN[C@H]1CC[C@H](O)CC1 [ambroxol]
percentage of cell death vs doxorubicin in the absence of a protective agent [16]: no significant difference
number of active electrodes relative to the mock-treated sample (in words) [19]: no observable decrease
beat period or field potential duration, as compared to control samples [17]: no appreciable difference
percentage of cell death vs doxorubicin in the absence of a protective agent [18]: no significant difference

C[C@H](CCC(=O)O)[C@H]1CC[C@H]2[C@@H]3[C@H](O)C[C@@H]4C[C@H](O)CC[C@]4(C)[C@H]3CC[C@]12C [chenodeoxycholic acid]
acute drug toxicity (beating) [17]: beating cessation
beat period or field potential duration, as compared to control samples [17]: no appreciable difference

CC(=O)N(O)CCCCCNC(=O)CCC(=O)N(O)CCCCCNC(=O)CCC(=O)N(O)CCCCCN [deferoxamine]
beat period or field potential duration, as compared to control samples [17]: no appreciable difference

C[C@@H](CN1CC(=O)NC(=O)C1)N1CC(=O)NC(=O)C1 [dexrazoxane]
mitochondrial toxicity / protection (TMRM-positive cells) [20]: increase in mitochondrial toxicity
percentage of cell death vs doxorubicin in the absence of a protective agent [16]: no significant difference
IC50 [2]: 34.4 µM
reduction in the number of active electrodes ([19]; 500 dexrazoxane, about 2 days post-treatment): ~50%
beat period or field potential duration, as compared to control samples [17]: no appreciable difference
topoisomerase IIβ protein levels [7]: marked disappearance of TOPOIIβ
percentage of cell death vs doxorubicin in the absence of a protective agent [18]: no significant difference
IC50 [21]: 52.7 µM

COc1cccc2c1C(=O)c1c(O)c3c(c(O)c1C2=O)C[C@@](O)(C(=O)CO)C[C@@H]3O[C@H]1C[C@H](N)[C@H](O)[C@H](C)O1 [doxorubicin, reference compound]
mitochondrial toxicity / protection (TMRM-positive cells) [20]: increase in mitochondrial toxicity
decrease in the number of active electrodes ([22]; 24 hours): ~50%
decrease in the number of active electrodes, relative to time zero ([22]; 30 hours): ~95%
cardiomyocyte contraction ([4]; DOX 0.5 μM): induced dysfunction in cardiomyocyte contraction
TOPOIIβ mRNA expression [6, 24]: significantly repressed
CC50 at 72 h [15]: 0.41 µM
decrease of ejection fraction (EF) [23]: 19%
decrease of fractional shortening (FS) [23]: 15%
TOPOIIα mRNA expression ([8]; DOX alone, over time): slowly repressed

COc1cccc2c1C(=O)c1c(O)c3c(c(O)c1C2=O)C[C@@](O)(C(=O)CO)C[C@@H]3O[C@H]1C[C@H](N)[C@@H](O)[C@H](C)O1 [epirubicin]
CC50 at 72 h [15]: 0.49 µM

Nc1ccc(O)c(C(=O)O)c1 [mesalamine]
percentage of cell death vs doxorubicin in the absence of a protective agent [16]: no significant difference
number of active electrodes relative to the mock-treated sample (in words) [19]: no observable decrease
percentage of cell death vs doxorubicin in the absence of a protective agent [18]: no significant difference

C[C@@H]1O[C@@H](Oc2c(-c3cc(O)c(O)c(O)c3)oc3cc(O)cc(O)c3c2=O)[C@H](O)[C@H](O)[C@H]1O [myricitrin]
QT prolongation (in words) [11]: no signs of QT prolongation

O=C1C[C@@H](c2ccc(O)cc2)Oc2cc(O)cc(O)c21 [naringenin]
acute drug toxicity (beating) [17]: beating cessation
beat period or field potential duration, as compared to control samples [17]: no appreciable difference
